{"source": "patent US20060095020A1", "about": "“Introduction of agent with medical device” (Medtronic, Inc., priority 2004, published 2006)", "tested_on": "staphylococcus epidermidis", "conditions": "in vitro", "source_text": "One skilled in the are would be able to determine the best effective concentration of the active agent, such about 0.05%, about 1%, about 5%, about 10%, about 20%, or the like that should be deployed in a choosen configuration of a given device.\nFIG. 10 is a conceptual diagram illustrating an in vitro testing system 160 with an active agent. Testing system 160 includes a culture plate 162, which serves as a test platform. […] A experimental tube 168 made at least in part of diffusible material is deployed in plate 162 proximate to microorganisms 166. The diffusible material is configured to pass the test agent to the indicator by diffusion. Experimental tube 168 may be wholly or partially embedded in growth medium 164, or may rest atop growth medium 164. Experimental tube 168 includes a lumen configured to receive a test active agent.\nA pump 170 pumps the active agent from a reservoir 172 into the lumen of tube 168. A valve 174 may be closed to prevent leakage or other discharge of the active agent from tube 168, and an outlet reservoir 176 may be provided to collect fluid that discharges from tube 168. In some embodiments, pump 170, valve 174, or both are electronically controlled such that the quantity of active agent in tube 168 is known, such that the pressure of active agent in tube 168 is known, or such that the flow rate of active agent in tube 168 is known. When the active agent is an antibiotic, the effect of the antibiotic agent on microorganisms 166, if any, can be observed using conventional observational techniques, such as optical or microscopic examination. In this way, the effect of the active agent on microorganisms 166 serves as an indicator of diffusion of the test agent through the diffusible material."}
{"smiles": "OO", "note": "[hydrogen peroxide]", "values": [{"measurement": "zone of inhibition of bacterial growth", "setting": "0.3 percent hydrogen peroxide concentration", "value": "about twenty-five"}, {"measurement": "zone of inhibition of bacterial growth from the site of diffusion", "setting": "thirty percent concentration hydrogen peroxide solution, diffusing through polyethylene 80 (PE80A) tubing", "value": "eighty"}, {"measurement": "effectiveness against staphylococcus epidermidis", "setting": "thirty percent concentration hydrogen peroxide solution", "value": "substantial effectiveness"}]}
